Key:
FGFR2 V564F = FGFR2 V564F (Homo sapiens (Human), UniProt P21802, V564F); assay: TR-FRET kinase inhibition assay, FGFR2 V564F; type: biochemical; details: ATP Km concentration (20 μM)
Outline: (§1)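 Kinase-domain fragments in 50 mM HEPES pH 7.5 with 10 mM MgCl2, ATP at Km plus peptide substrate; 60 min reaction at room temperature, then EDTA/Eu-anti-phosphotyrosine (PT66) detection for 60 min (30 min for V564F). 11-point 3-fold dilutions from 1000 nM; IC50 from four-parameter fit of 665/620 nm ratio inhibition.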

NCI-H716 cells = assay: CellTiter-Glo cell proliferation inhibition, NCI-H716; type: cell-based; details: Homo sapiens, 72 h, read-out: NCI-H716 cell proliferation inhibition rate IC50
Outline: (§2)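 Cells plated, compound added next day as 9-point 3-fold series from 1000 nM to 0.15 nM, incubated 72 h. Viability by CellTiter-Glo luminescence; IC50 from four-parameter variable-slope fit of percent inhibition.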

FGFR3 = FGFR3 (Homo sapiens (Human), UniProt P22607); assay: TR-FRET kinase inhibition assay, FGFR3; type: biochemical; details: ATP Km concentration (30 μM)
Sequence of FGFR3 (P22607 472-761): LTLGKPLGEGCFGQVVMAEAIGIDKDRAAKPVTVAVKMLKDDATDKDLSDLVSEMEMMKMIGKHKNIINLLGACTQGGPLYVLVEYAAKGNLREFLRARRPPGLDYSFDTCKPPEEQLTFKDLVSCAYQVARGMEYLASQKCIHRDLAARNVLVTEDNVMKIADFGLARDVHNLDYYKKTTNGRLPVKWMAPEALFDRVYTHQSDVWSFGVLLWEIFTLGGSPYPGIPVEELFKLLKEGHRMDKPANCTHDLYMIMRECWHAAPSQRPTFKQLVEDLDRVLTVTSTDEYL
Protocol: To measure the IC50 values of the compounds against FGFR1, FGFR2, FGFR3, FGFR4, and FGFR2 V564F at ATP Km concentrations by TR-FRET method.
TR-FRET (time-resolved fluorescence resonance energy transfer) method was used to detect the inhibitory activity of the compounds on FGFR1, FGFR2, FGFR3, FGFR4, and FGFR2 V564F kinase region fragments. The highest detection concentration of the compounds in 5 kinase experiments was 1000 nM, which was diluted in 3 folds, with a total of 11 concentrations (1000 nM to 0.017 nM). A kinase buffer (50 mM HEPES pH 7.5, 1 mM EGTA, 10 mM MgCl2, 2 mM DTT, and 0.01% Tween-20) was used to prepare 4× enzyme solution, 4× compound solutions diluted in gradient, and a 2×ATP/Peptide substrate solution. To a 384-well plate, 2.5 μL of enzyme solution and 2.5 μL of diluted […] compound solution were added, and 5 μL of 2×ATP/Peptide substrate solution was then added. After reacting at room temperature for 60 minutes for FGFR1, FGFR2, FGFR3, and FGFR2 V564F kinases, and 120 minutes for FGFR4 kinase, 10 μL of a 2× termination and detection mixed liquid prepared with 1×LANCE detection buffer with an EDTA concentration of 20 mM and a Europium-anti-phosphotyrosine (PT66) concentration of 2 nM was added to each well of the plate. After reacting at room temperature for 60 minutes for FGFR1, FGFR2, FGFR3, and FGFR4, and 30 minutes for FGFR2 V564F, the fluorescence signal value in each well of the plate was measured by a microplate reader.
1) Inhibition rate (%): Calculation was performed on the raw data (665 nm/620 nm reading ratio) according to the following formula to obtain the inhibition rate. Inhibition rate %=[(mean value in positive control well−value in sample well)/(mean value in positive control well−mean value in negative control well)]×100, wherein the positive control well was a reaction well without a compound […], and the negative control well was a reaction wells without an enzyme.
2) Curve fitting: Log(inhibitor) vs. response—Variable slope (four parameters) in GraphPad Prism 6 was used for fitting equation analysis of the compound concentration and the corresponding inhibition rate, and the curve was fitted to obtain the IC50 values of the compounds.

[1] = tested on: BaF3 FGFR2-BICC1 V564F cells; assay: CellTiter-Glo cell proliferation inhibition, BaF3 FGFR2-BICC1 V564F; type: cell-based; details: Mus musculus, 72 h, read-out: BaF3 FGFR2-BICC1 V564F inhibitory activity IC50
Outline: as §2

FGFR1 = FGFR1 (Homo sapiens (Human), UniProt P11362); assay: TR-FRET kinase inhibition assay, FGFR1; type: biochemical; details: ATP Km concentration (30 μM)
Sequence of FGFR1 (P11362 478-767): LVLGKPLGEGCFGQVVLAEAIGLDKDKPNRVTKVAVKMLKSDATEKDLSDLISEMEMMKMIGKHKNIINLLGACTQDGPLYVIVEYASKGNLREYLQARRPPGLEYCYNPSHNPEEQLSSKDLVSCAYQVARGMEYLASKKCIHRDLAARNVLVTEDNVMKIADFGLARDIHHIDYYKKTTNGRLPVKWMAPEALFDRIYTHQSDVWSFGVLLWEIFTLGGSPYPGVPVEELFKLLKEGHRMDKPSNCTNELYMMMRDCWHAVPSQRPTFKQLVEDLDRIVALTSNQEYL
Outline: as §1

FGFR2 = FGFR2 (Homo sapiens (Human), UniProt P21802); assay: TR-FRET kinase inhibition assay, FGFR2; type: biochemical; details: ATP Km concentration (30 μM)
Sequence of FGFR2 (P21802 481-770): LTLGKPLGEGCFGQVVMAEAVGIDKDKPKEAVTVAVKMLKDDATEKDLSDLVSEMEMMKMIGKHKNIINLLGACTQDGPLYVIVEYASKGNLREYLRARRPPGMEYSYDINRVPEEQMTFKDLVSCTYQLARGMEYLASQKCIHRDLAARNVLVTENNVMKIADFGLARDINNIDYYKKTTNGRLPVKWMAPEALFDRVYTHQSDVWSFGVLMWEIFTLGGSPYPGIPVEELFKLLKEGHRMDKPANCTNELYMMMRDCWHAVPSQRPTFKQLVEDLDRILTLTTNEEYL
Outline: as §1

[2] = Pharmacokinetic experiment in SD rats after oral administration; type: in vivo; details: 5 mg/kg, plasma; for AUC(0-t) / AUC(0-inf) / half-life / MRT / Cmax: male, Sprague-Dawley (SD), rat, po; for AUC(0-t): read-out: Area under the curve AUC0-t; for AUC(0-inf): read-out: Area under the curve AUC0-∞; for half-life: read-out: Half-life t1/2 (converted); for MRT: read-out: Mean residence time MRT; for Cmax: read-out: Plasma concentration Cmax; for Time to peak tmax: p.o.

Sequence of FGFR2 V564F (P21802 481-770 V564F): as the sequence (P21802 481-770) above, with V84F counted along it

Structure (SMILES)	IC50 (FGFR2 V564F)	IC50 (NCI-H716 cells)	IC50 (FGFR3)	IC50 [1]	IC50 (FGFR1)	IC50 (FGFR2)	AUC(0-t) [2]	AUC(0-inf) [2]	half-life [2]	MRT [2]	Cmax [2]	Time to peak tmax [2]
C=CC(=O)N1CC[C@H](n2nc(C#Cc3ccc4c(c3)ncn4C3CC3)c3c(N)ncc(C(C)=O)c32)C1 [Example 37, (S)-1-(3-(7-acetyl-4-amino-3-((1-cyclopropyl-1H-benzo[d]imidazol-5-yl)ethynyl)-1H-pyrazolo[4,3-c]pyridin-1-yl)pyrrolidin-1-yl)prop-2-en-1-one]	0.5 nM	0.95 nM	1.1 nM	2 nM	2.4 nM	1 nM	–	–	–	–	–	–
C=CC(=O)N1CC[C@H](n2nc(C#Cc3ccc4oc(C5CC5)nc4c3)c3c(N)ncc(C(C)=O)c32)C1 [Example 70, (S)-1-(3-(7-acetyl-4-amino-3-((2-cyclopropylbenzo[d]oxazol-5-yl)alkynyl)-1H-pyrazolo[4,3-c]pyridin-1-yl)pyrrolidine-1-methyl)prop-2-en-1-one]	1.3 nM	1.6 nM	–	2.6 nM	2.4 nM	0.6 nM	1510 ng·h/mL	1860 ng·h/mL	2.5 h	5.5 h	287 ng/mL	4 h
C=CC(=O)N1CC[C@H](n2nc(C#Cc3ccc4c(c3)ncn4C)c3c(N)ncc(C(=O)CC)c32)C1 [Example 64, (S)-1-(3-(4-amino-3-((1-methyl-1H-benzo[d]imidazol-5-yl)ethynyl)-7-propionyl-1H-pyrazolo[4,3-c]pyridin-1-yl)pyrrolidin-1-yl)prop-2-en-1-one]	0.6 nM	1.8 nM	–	1.9 nM	6.3 nM	1.4 nM	3400 ng·h/mL	3430 ng·h/mL	0.9 h	2.58 h	866 ng/mL	2 h
C=CC(=O)N1CC[C@H](n2nc(C#Cc3ccc4ccnn4c3)c3c(N)ncc(C(C)=O)c32)C1 [Example 71, (S)-1-(3-(7-acetyl-4-amino-3-(pyrazolo[1,5-a]pyridine-6-ethynylene)-1H-pyrazolo[4,3-c]pyridin-1-yl)pyrrolidine-1-methyl)prop-2-en-1-one]	2.8 nM	1.5 nM	2.7 nM	2.2 nM	7.2 nM	2 nM	–	–	–	–	–	–
C=CC(=O)N1CC[C@H](n2nc(C#Cc3ccc4cn(CC)nc4c3)c3c(N)ncc(C(C)=O)c32)C1 [Example 85, (S)-1-(3-(7-acetyl-4-amino-3-((2-ethyl-2H-indazol-6-yl)alkynyl)-1H-pyrazolo[4,3-c]pyridin-1-yl)pyrrolidine-1-methyl)prop-2-en-1-one]	0.5 nM	0.96 nM	–	0.4 nM	2.1 nM	0.4 nM	1490 ng·h/mL	1490 ng·h/mL	0.5 h	2.39 h	394 ng/mL	0.5 h
C=CC(=O)N1CC[C@H](n2nc(C#Cc3ccc4ccnn4c3)c3c(N)ncc(C(=O)CC)c32)C1 [Example 72, (S)-1-(3-(4-amino-7-propionyl-3-(pyrazolo[1,5-a]pyridine-6-ethynylene)-1H-pyrazolo[4,3-c]pyridin-1-yl)pyrrolidine-1-methyl)prop-2-en-1-one]	2.1 nM	1.97 nM	1.6 nM	1.5 nM	7.3 nM	1.4 nM	1150 ng·h/mL	1150 ng·h/mL	0.6 h	2.26 h	298 ng/mL	0.5 h
C=CC(=O)N1CC[C@H](n2nc(C#Cc3ccc4cn(C)nc4c3)c3c(N)ncc(C(C)=O)c32)C1 [Example 82, (S)-1-(3-(7-acetyl-4-amino-3-((2-methyl-2H-indazol-6-yl)alkynyl)-1H-pyrazolo[4,3-c]pyridin-1-yl)pyrrolidine-1-methyl)prop-2-en-1-one]	0.3 nM	0.21 nM	0.5 nM	0.5 nM	1.4 nM	0.3 nM	2800 ng·h/mL	2910 ng·h/mL	1.4 h	3.05 h	677 ng/mL	1 h

— patent US20250152564A1, “PROPYLENE KETONE-CONTAINING BIOINHIBITOR, PREPARATION METHOD THEREFOR, AND USE THEREOF” (SHANGHAI HANSOH BIOMEDICAL CO., LTD., priority 2022, published 2025)
